In paper PMC12291762 (Antioxidants, 2025):

Tests used:
[1] = test system: systemic oxidative stress parameters; assay: Systemic redox state (plasma, erythrocyte lysate) 24 h after carrageenan; assay type: in vivo, Wistar albino rats
Procedure: (§1) Following 24 h of carrageenan-induced paw edema inflammation model and intraperitoneal anesthesia induced by ketamine/xylazine (100/10 mg/kg of BW), the animals were sacrificed, while whole-blood samples and edema-affected paw tissues were isolated. After centrifugation of whole blood, plasma and erythrocyte lysate samples were separated for further examination of the applied compounds’ effects on the systemic redox balance state. Pro-oxidative markers including superoxide anion radical (O2∙^−), hydrogen peroxide (H2O2) nitrites (NO2^−), and index of lipid peroxidation measured as thiobarbituric acid (TBA) reactive substances (TBARS) were determined from plasma samples, while the antioxidant capacity, including superoxide dismutase (SOD) and catalase (CAT) activity, as well as the reduced glutathione (GSH) level were examined in erythrocyte lysate samples [46]. […] Edema-affected paw tissue samples were weighed (100 mg) and homogenized (OmniPrep™ multi-sample homogenizer, Omni International, Kennesaw, GA, USA) in 900 µL phosphate buffer on ice (pH = 7.4), and centrifuged at 12,000 rpm for 20 min. These supernatant samples were used for the determination of the aforementioned pro-oxidative and antioxidative parameters levels. All oxidative stress analyses were performed spectrophotometrically using a Shimadzu UV 1800 spectrophotometer (Kyoto, Japan).
(§2) Determination of the O2∙^− level was conducted by adding 950 µL of a Nitro Blue Tetrazolium (NBT) mixture with TRIS buffer in 50 µL of sample, measured at the 550 nm wavelength. The level of H2O2 was determined during the oxidation of phenol red by H2O2, which was catalyzed with horseradish peroxidase and measured at the 610 nm wavelength. Indirect measurement of nitrites was performed by the precipitation of samples with 30% sulfo-salicylic acid, followed by vortexing and centrifugation at 3000 rpm for 15 min. The equal volumes of isolated supernatant and Griess’ reagent (containing 1% sulfanilamide in 5% phosphoric acid/0.1% naphthalene ethylenediamine-dihydrochloride) were incubated for 10 min and measured at the 550 nm wavelength. The TBARS concentration was determined by adding 400 µL of sample to 200 µL of TBA in 0.05 M NaOH, followed by 15 min incubation at 100 °C. Measurement was performed at the 530 nm wavelength.
(§3) The epinephrine method was used for SOD determination. By adding 100 µL of sample, the same volume of epinephrine, and 1000 µL of carbonate buffer, the measurement was performed at the 470 nm wavelength. The determination of CAT activity was based on the preparation of a mixture containing 100 µL of sample, 50 µL of catalase buffer, and 1000 µL of 10 mM H2O2, which was measured at the 230 nm wavelength.

[2] = test system: local oxidative stress parameters; assay: Local redox state (edema-affected paw tissue homogenate) 24 h after carrageenan; assay type: in vivo, Wistar albino rats; conditions: inflamed paw tissue; for Local nitrites level (reduction, p < 0.05): comparator not given
Procedure: as §1, §2, §3

Row | Compound | Systemic CAT activity compared to Dex group ([1]; erythrocyte lysate) | Systemic GSH level compared to Dex group ([1]; erythrocyte lysate) | Systemic SOD activity compared to Dex group ([1]; erythrocyte lysate) | Systemic O2∙− level compared to Dex group ([1]; plasma) | Systemic TBARS level compared to Dex group ([1]; plasma) | Systemic O2∙− level compared to untreated (Sol) rats ([1]; plasma) | Systemic TBARS level compared to Sol (untreated) rats ([1]; plasma) | Systemic GSH level compared to untreated rats ([1]; erythrocyte lysate) | Local SOD activity compared to Dex rats [2] | Local SOD activity compared to untreated (negative control) rats [2] | Local TBARS level compared to Dex group [2] | Local TBARS level compared to Sol rats [2] | Local nitrites level (reduction, p < 0.05) [2] | Systemic H2O2 level compared to Dex group ([1]; plasma)
1 | C[C@H](C(=O)N[C@@H](Cc1c[nH]c2ccccc12)C(=O)O)c1cccc(C(=O)c2ccccc2)c1 [Compound 4, ((S)-2-(3-benzoylphenyl)propanoyl)-L-tryptophan] | decreased this enzyme activity | significantly reduced | significantly lower activity | significantly higher concentration | dexketoprofen injection significantly decreased the TBARS concentration compared to the Sol group, as well as rats treated with compounds 1, 3, and 4 | – | – | – | – | – | – | – | – | –
2 | C[C@H](C(=O)N[C@@H](Cc1ccccc1)C(=O)O)c1cccc(C(=O)c2ccccc2)c1 [Compound 3, ((S)-2-(3-benzoylphenyl)propanoyl)-L-phenylalanine] | – | – | significantly lower activity | no significant difference | dexketoprofen injection significantly decreased the TBARS concentration compared to the Sol group, as well as rats treated with compounds 1, 3, and 4 | significantly lower | – | – | – | – | – | – | – | –
3 | C[C@H](C(=O)NCC(=O)O)c1cccc(C(=O)c2ccccc2)c1 [Compound 1, (S)-(2-(3-benzoylphenyl)propanoyl)glycine] | – | – | significantly lower activity | significantly higher concentration | dexketoprofen injection significantly decreased the TBARS concentration compared to the Sol group, as well as rats treated with compounds 1, 3, and 4 | – | significantly reducing | – | – | – | – | – | – | –
4 | C[C@H](NC(=O)[C@@H](C)c1cccc(C(=O)c2ccccc2)c1)C(=O)O [Compound 2, ((S)-2-(3-benzoylphenyl)propanoyl)-L-alanine] | highest potential to increase CAT activity | – | no statistical differences | no significant difference | – | significantly lower | – | significantly increased GSH level | increase the SOD activity | increase the SOD activity | no statistical differences | reduce the TBARS level | markedly reduced | –
5 | C[C@H](C(=O)NCCCC(=O)O)c1cccc(C(=O)c2ccccc2)c1 [Compound 5, (S)-4-(2-(3-benzoylphenyl)propanamido)butanoic acid] | – | – | no statistical differences | no significant difference | – | significantly lower | significantly reducing | significantly increased GSH level | – | – | – | – | markedly reduced | did not differ significantly
